Patent US20010034373A1, “Low dose modafinil for enhancement of cognitive function” (priority 2000, published 2001)
“Also recorded” adds a separate entry of the source.

Tests used:
[1] = system: aged male Wistar rats; settings: rat, in vivo
[2] = system: aged rats; assay: performance of a stabilized delayed alternation task at three retention delays in aged rats; assay type: in vivo, rat; parameters: dose or concentration left out as unconfirmed; settings: 15, 30 or 60 modafinil
Method: In another study, aged rats were tested for performance of a stabilized delayed alternation task at three retention delays. After stabilized performance in training sessions the rats were entered into a drug testing study with […] of modafinil. A trial started with the presentation of a single lever (left or right). […] After the expiration of the delay, the 2 levers were inserted into the chamber and the animal received a food pellet only if it pressed the lever not previously presented (delayed alternation). Incorrect responses (responses on the same lever) were not reinforced. The 3 delays were randomly presented and equally distributed throughout the session. Correct or incorrect responses were followed by retraction of the two levers. […] The test results indicated the response accuracy of the animal after each retention delay, the simple reaction time in the one lever presentation, and the choice reaction time in the two lever presentation. […] Therefore, modafinil had no effect on improving short term memory at these doses.

[3] = system: adult humans; assay: wakefulness promoting dose extrapolated to adult humans; assay type: in vivo, human; settings: extrapolation in adult humans
Method: The dosage levels in rats in the studies described herein are reported in mg/kg administered by intraperitoneal injection (i.p.). As described in previous publications, the wakefulness promoting dose of modafinil in rats is highly significant at doses of 100 to 300 mg/kg i.p. (Edgar and Seidel, The Journal of Pharmacology and Experimental Therapeutics, vol. 283, pp 757-769, 1997). The extrapolation in adult humans is a wakefulness promoting dose of 200 mg/day. A dose of 200 mg to an adult human would result in a serum level of about 6.4 μg/ml. […] An effective dose, therefore, is a dose given as a single unit per day in a sustained release formula or given periodically would be that dose that maintains a serum level of from about 0.05 to about 2 μg/ml.

[4] = dose of 200 mg to an adult human; cited from earlier work

NC(=O)C[S+]([O-])C(c1ccccc1)c1ccccc1 (centres unmarked) [Modafinil, 2-(benzhydrylsulfinyl) acetamide]
choice reaction times [1]: significantly decreased | general ability of animals to perform the task [1]: failed to improve | number of correct responses [1]: No effects | number of correct responses (response accuracy) [1]: significantly increased | number of response omissions [1]: significantly increased | simple reaction times [1]: No clear effects; also recorded: tended to increase | cognitive function in aged rats ([1]; 60 mg/kg): restored cognitive function in the aged rats to the level of the young control rats | effect on improving short term memory [2]: no effect | number of correct responses at any retention delay ([2]; retention delays 5, 10 or 20 seconds): did not significantly affect | wakefulness promoting dose [3]: 200 mg/day | serum level [4]: about 6.4 μg/ml
